{"source": "patent US20190374628A1", "about": "“MUTATED FRAGMENTS OF THE RAS PROTEIN” (Targovax ASA, priority 2015, published 2019)", "key": {"splenocytes": {"tested_on": "splenocytes", "assay": "Splenocyte proliferation assay (3H-thymidine) after subcutaneous vaccination of mice with TG02", "type": "cell-based, BALB/c mice", "conditions": "ex vivo 10 μM TG02 per peptide or 1 μg/200 μL ConA, 5 days; for Counts per minute (CPM) of stimulated splenocytes: single replicates", "description": "In this Example, mice were repeatedly vaccinated subcutaneously with TG02, in order to analyse the immune response. Following the vaccination, splenocytes were harvested, and the proliferative response of the splenocytes was measured.\nThe study was conducted with 3 groups, each compromising 10 female BALB/c mice. The start of the study was performed on two separate days on which 5 of the animals per group were treated. Therefore the groups were divided into part I and part II. The animals were treated subcutaneously at different time points (Table 30).\nIn all groups the test item was administered at repeated time points (Table 33) by subcutaneous injection between the nape of the neck and the shoulder. The application volume for all groups was 0.1 mL (0.80 mg TG02).\nThe spleen of all animals was removed, transferred to cell culture medium (RPMI 1640 medium supplemented with 10% FCS, 100 U/mL Penicillin, 100 μg/mL Streptomycin, 2 mM L-Glutamine, and 50 μM beta-mercaptoethanol) and stored on ice. All steps were performed sterile and cells were kept on ice.\nA single cell suspension from splenic cells was generated using a cell strainer. After centrifugation (350 g, 5 min, 5±3° C.), supernatant was removed and the cell pellet was resuspended in ACK buffer and incubated for 5 min at RT. 10 mL cell culture medium was added. The samples were left 5 min on bench top to let the cell debris sediment. The suspension above the cell debris was transferred into another tube and was centrifuged (350 g, 5 min, 5±3° C.). The supernatant was removed and the cell pellet was resuspended in 10 mL cell culture medium. After counting of cells, 0.2 Mio cells were seeded in a 96 well plate (180 μL per well; 1,1*10^6 cells/mL). 9 replicates were plated on each plate for each spleen.\nThe following stimulations were performed: • 3 replicates: unstimulated (addition of 20 μL cell culture medium) • 3 replicates: stimulation with 10 μM TG02 (8 peptides, 10 μM end concentration per peptide, addition in 20 μL cell culture medium) • 3 replicates: stimulation with 1 μg/200 μL ConA (Concanavalin A) (addition of 1 μg ConA in 20 μL cell culture medium)\nIncubation at 37° C. and 5% CO2 for 24 h (1), 48 h (2) or 5 days (3).\nProliferation Assay • (3) After 5 days, 1 μCi/well ^3H-Thymidine was added to the samples, which were then incubated for 18 h at 37° C. and 5% CO2. The plates were then frozen at […]\nPlates were thawed at RT. After washing off the harvester, the samples were transferred to a filter plate using the harvester followed by 5 washing steps using water. Filter plates were dried at RT overnight. A foil was stuck to the bottom of the filter plates and 20 μL scintillation fluid was added to the wells. After incubation of 1 h at RT, the samples were measured using a TopCount NXT and the stimulation index (SI) was calculated. SI=CPM of stimulated samples/CPM of control samples."}, "T-cells [1]": {"tested_on": "T-cells", "assay": "3-day T-cell proliferation assay after stimulation of buffy coat PBMCs with TGX3 or A146T peptide", "type": "cell-based, human", "conditions": "buffy coat of healthy donor (buffy 5), FIG. 11", "description": "In this Example, Buffy coats were collected from three normal donors (Buffy 5, Buffy 6, and Buffy 7) for testing of T cell responses to selected peptides reflecting exon 2, 3 and 4 mutations in RAS. The standard operating procedure (SOP) for monitoring of T cell responses in clinical studies with KRAS peptide vaccination (TG01) was used for testing of peptide cocktail TGX3 and individual peptides.\nPeptide cocktail TGX3 was a mixture of equimolar amounts of A146T+G13C+G13D+Q61R.\nThe procedure was performed at room temperature. All handling of cells in the open was done in a vertical laminar flow hood. • 1. 3 Buffy coats were ordered from Blodbanken, Ulleval, OUS, Norway • 2. PBMCs were isolated according to methods C001-003 (platelet-low). • 3. The number of viable cells was counted using KOVA Galsstic slides and the cell concentration adjusted to 4×10^6 cells/ml in complete CellGro DC medium (see recipe). Total cell numbers: Buffy 5-585×10^6, Buffy 6-360×10^6, and Buffy 7-405×10^6 cells. […]\nc) Second Stimulation (Day 14) of Bulk Cultures • 1. Day 14: Harvested, washed and counted T-cells in the bulk cultures from 6.2; […]\nd) Third Stimulation (Day 19) and Testing for Specificities in 3-Day T-Cell Proliferation Assay—Bulk Cultures • 1. Day 19: Harvested, washed and counted T-cells in the bulk cultures from 6.3; […]"}, "T-cells [2]": {"tested_on": "T-cells", "assay": "Bulk cultures for increasing number of TGX3 and peptide reactive T-cells: total T cell numbers", "type": "cell-based, human", "conditions": "for Total T cell numbers in cultures: Day 14, after first stimulation, 10 μM of each peptide; for Total T cell numbers: Day 19, after second stimulation", "description": "b) First Stimulation—Bulk Cultures for Increasing Number of TGX3 and Peptide Reactive T-Cells • 1. Transfered 1 ml of the different PBMCs (4×10^6 cells/ml in DC medium) to each well in a 24-well plate.\n• 2. Added TGX3-mix/single peptide to each well for a final concentration of 10 μM of each peptide. • 3. Cultured the cells in a humidified incubator at 37° C./5% CO2 for 3 days • 4. Day 3: Added a final concentration of 20 iU/ml of recombinant human interleukin-2 (rIL-2, b#77) and final concentration of 5 ng/ml recombinant human IL-7 (b#25) to the cell cultures and continued incubation at 37° C./5% CO2. This depended on how fast the cells were growing and needed to be decided by a trained person with T-cell culture experience (according to checklist for training, Section for Cell Therapy). • 5. Days 4-12: Cells were checked regularly under the microscope and split when required (500 μl was withdrawn from each well and replaced with 500 μl fresh CellGro DC medium, supplemented with 20 iU/ml IL-2 and 5 ng/ml IL-7) and wells with slow growing cells were mixed together.\nc) Second Stimulation (Day 14) of Bulk Cultures • 1. Day 14: Harvested, washed and counted T-cells in the bulk cultures from 6.2;\nBulk culture cells (ca 2×10^6 T cells/well) were re-stimulated once more with autologous irradiated (30 Gy) APCs (ca 2×10^6 APCs/well) added their respective peptides (as described in step b) above). • 2. Cultured the cells in a humidified incubator at 37° C./5% CO2 for 3 days. • 3. Day 3 after second stimulation (i.e. Day 17 of the procedure): A final concentration of 20 iU/ml of recombinant human interleukin-2 (rIL-2, b#77) and final concentration of 5 ng/ml recombinant human IL-7 (b#25) were added to the cell cultures and continued incubation at 37° C./5% CO2 (as described in step b) above). • 4. Day 18-26: Cells were checked regularly under the microscope and split when required (500 μl was withdrawn from each well and replaced with 500 μl fresh CellGro DC medium, supplemented with 20 iU/ml IL-2 and 5 ng/ml IL-7) and wells with slow growing cells were mixed together (see step b) above).\nd) Third Stimulation (Day 19) and Testing for Specificities in 3-Day T-Cell Proliferation Assay—Bulk Cultures • 1. Day 19: Harvested, washed and counted T-cells in the bulk cultures from 6.3;"}}, "note": "Where “and” joins values, the source holds several entries; their conditions need not be identical. Equal entries are not always repeated.", "data": [{"substance": "Concanavalin A [ConA]", "values": [{"measurement": "Mean counts per minute (CPM) of stimulated splenocytes", "setting": "splenocytes; Mean Mouse #4 (vaccinated with TG02)", "result": "15,210 CPM"}, {"measurement": "Mean counts per minute (CPM) of stimulated splenocytes", "setting": "splenocytes; Mean Mouse #7 (vaccinated with TG02)", "result": 6158, "unit": "CPM"}, {"measurement": "Mean counts per minute (CPM) of stimulated splenocytes", "setting": "splenocytes; Mean Mouse #24 (vaccinated with TG02+Viscogel)", "result": 8823, "unit": "CPM"}, {"measurement": "Mean counts per minute (CPM) of stimulated splenocytes", "setting": "splenocytes; Mean Mouse #29 (vaccinated with TG02+Viscogel)", "result": "10,935 CPM"}, {"measurement": "Counts per minute (CPM) of stimulated splenocytes", "setting": "splenocytes; Mouse #4 (vaccinated with TG02)", "result": "15,113 CPM and 12,612 CPM and 17,906 CPM"}, {"measurement": "Counts per minute (CPM) of stimulated splenocytes", "setting": "splenocytes; Mouse #7 (vaccinated with TG02)", "result": "5305 CPM and 6252 CPM and 6916 CPM"}, {"measurement": "Counts per minute (CPM) of stimulated splenocytes", "setting": "splenocytes; Mouse #24 (vaccinated with TG02+Viscogel)", "result": "7834 CPM and 8578 CPM and 10,057 CPM"}, {"measurement": "Counts per minute (CPM) of stimulated splenocytes", "setting": "splenocytes; Mouse #29 (vaccinated with TG02+Viscogel)", "result": "9480 CPM and 13,292 CPM and 10,033 CPM"}, {"measurement": "Counts per minute (CPM) of stimulated splenocytes", "setting": "splenocytes; Mouse #30 (vaccinated with TG02+Viscogel)", "result": "32,205 CPM and 35,668 CPM and 42,149 CPM"}, {"measurement": "Mean counts per minute (CPM) of stimulated splenocytes", "setting": "splenocytes; Mouse #30 mean line (vaccinated with TG02+Viscogel)", "result": "36,687 CPM"}]}, {"substance": "GIPFIETSTKTRQRVED (listed as Homo sapiens) [A146T, KRAS peptide having a A146T mutation]", "values": [{"measurement": "T-cell proliferation after stimulation with A146T peptide (result in words)", "setting": "T-cells [1]", "result": "immunogenic and is efficient in inducing T-cell proliferation"}, {"measurement": "T-cell proliferation after stimulation with A146T peptide (result in words)", "setting": "T-cells [1]; listed as A146T peptide", "result": "stimulates induction of T-cells"}, {"measurement": "Total T cell numbers in cultures", "setting": "T-cells [2]; Buffy 5", "result": "4 × 10^6"}, {"measurement": "Total T cell numbers", "setting": "T-cells [2]; Buffy 5", "result": "10.8 × 10^6"}, {"measurement": "Total T cell numbers in cultures", "setting": "T-cells [2]; Buffy 6", "result": "4 × 10^6"}, {"measurement": "Total T cell numbers", "setting": "T-cells [2]; Buffy 6", "result": "12.6 × 10^6"}, {"measurement": "Total T cell numbers in cultures", "setting": "T-cells [2]; Buffy 7", "result": "6.8 × 10^6"}, {"measurement": "Total T cell numbers", "setting": "T-cells [2]; Buffy 7", "result": "14.4 × 10^6"}]}]}
